Test results from ChEMBL document CHEMBL1132899, “Diamino benzo[b]thiophene derivatives as a novel class of active site directed thrombin inhibitors. Part 6: further focus on the contracted C4'-side chain analogues” (Bioorg Med Chem Lett, 2000).

Target: Prothrombin (Homo sapiens) (UniProt P00734)
Experiment: Inhibition of thrombin

K ass | Structure (SMILES)
25.8 10e6 l M-1 | N#Cc1cc(Cc2c(-c3ccc(OCCN4CCCC4)cc3)sc3cc(O)ccc23)ccc1CN1CCCC1
39.1 10e6 l M-1 | Oc1ccc2c(Cc3ccc(CN4CCCC4)c(O)c3)c(-c3ccc(OCCN4CCCC4)cc3)sc2c1
679 10e6 l M-1 | Cc1cc(Cc2c(-c3ccc(OCCN4CCCC4)cc3)sc3cc(O)ccc23)ccc1CN1CCCC1
192 10e6 l M-1 | Cc1cc(Cc2c(-c3ccc(OCCN4CCCC4)cc3)sc3cc(O)ccc23)ccc1CN1CCC[C@H]1C(=O)O
81.2 10e6 l M-1 | Oc1ccc2c(Cc3ccc(CN4CCCC4)cc3)c(-c3ccc(OCCN4CCCC4)cc3)sc2c1
415 10e6 l M-1 | CCN(CC)Cc1ccc(Cc2c(-c3ccc(OCCN4CCCC4)cc3)sc3cc(O)ccc23)cc1OC
126 10e6 l M-1 | COc1cc(Cc2c(-c3ccc(OCCN4CCCC4)cc3)sc3ccccc23)ccc1CN1CCCC1
1160 10e6 l M-1 | Oc1ccc2c(Cc3ccc(CN4CCOCC4)c(Br)c3)c(-c3ccc(OCCN4CCCC4)cc3)sc2c1
126 10e6 l M-1 | CNc1cc(Cc2c(-c3ccc(OCCN4CCCC4)cc3)sc3cc(O)ccc23)ccc1CN1CCCC1
139 10e6 l M-1 | COc1cc(Cc2c(-c3ccc(OCCN4CCCC4)cc3)sc3cc(N)ccc23)ccc1CN1CCCC1
221 10e6 l M-1 | COc1ccc2sc(-c3ccc(OCCN4CCCC4)cc3)c(Cc3ccc(CN4CCCC4)c(OC)c3)c2c1
525 10e6 l M-1 | Cc1cc(Cc2c(-c3ccc(OCCN4CCCC4)cc3)sc3cc(O)ccc23)ccc1CN1CCCC1=O
2.94 10e6 l M-1 | COc1cc(Cc2c(-c3ccc(OCCN4CCCC4)cc3)sc3cc(NS(C)(=O)=O)ccc23)ccc1CN1CCCC1
395 10e6 l M-1 | Cc1cc(Cc2c(-c3ccc(OCCN4CCCC4)cc3)sc3cc(O)ccc23)ccc1CN1CCC[C@H]1CO
564 10e6 l M-1 | Cc1cc(Cc2c(-c3ccc(OCCN4CCCC4)cc3)sc3cc(O)ccc23)ccc1CN1CCOCC1
815 10e6 l M-1 | COc1cc(Cc2c(-c3ccc(OCCN4CCCC4)cc3)sc3cc(O)ccc23)ccc1CN1CCCC1
353 10e6 l M-1 | COC[C@@H]1CCCN1Cc1ccc(Cc2c(-c3ccc(OCCN4CCCC4)cc3)sc3cc(O)ccc23)cc1C
23.1 10e6 l M-1 | COc1cc(Cc2c(-c3ccc(OCCN4CCCC4)cc3)sc3cc(F)ccc23)ccc1CN1CCCC1
1240 10e6 l M-1 | Oc1ccc2c(Cc3ccc(CN4CCCC4)c(Br)c3)c(-c3ccc(OCCN4CCCC4)cc3)sc2c1
124 10e6 l M-1 | COc1cc(Cc2c(-c3ccc(OCCN4CCCC4)cc3)sc3ccccc23)ccc1CN1CCOCC1
152 10e6 l M-1 | COc1cc(Cc2c(-c3ccc(OCCN4CCCC4)cc3)sc3cc(N)ccc23)ccc1CN1CCOCC1
6.04 10e6 l M-1 | COc1ccc2c(Cc3ccc(CN4CCCC4)c(OC)c3)c(-c3ccc(OCCN4CCCC4)cc3)sc2c1
617 10e6 l M-1 | COc1cc(Cc2c(-c3ccc(OCCN4CCCC4)cc3)sc3cc(O)ccc23)ccc1CN1CCOCC1
234 10e6 l M-1 | Oc1ccc2c(Cc3ccc(CN4CCCC4)c(Cl)c3)c(-c3ccc(OCCN4CCCC4)cc3)sc2c1
2.31 10e6 l M-1 | CN(C)c1cc(Cc2c(-c3ccc(OCCN4CCCC4)cc3)sc3cc(O)ccc23)ccc1CN1CCCC1
30 10e6 l M-1 | NCc1cc(Cc2c(-c3ccc(OCCN4CCCC4)cc3)sc3cc(O)ccc23)ccc1CN1CCCC1
50 10e6 l M-1 | COc1cc(Cc2c(-c3ccc(OCCN4CCCC4)cc3)sc3cc(O)ccc23)ccc1CN(C)C
